# Data published in US20220241223A1, “USE OF DISULFIRAM OR ITS DERIVATIVES FOR THE TREATMENT OF MITOCHONDRIAL DISEASES OR DYSFUNCTION” (Universite D'angers, priority 2019, published 2022).
# Test system: SHY1 Mutation G137R (shy1) yeast strain
# Assay: Halo test of growth on respiratory medium
# Assay type: cell-based, Saccharomyces cerevisiae
# Settings: FIG. 1B; shy1 mutant strain; 10 and 30 nmoles on filter
# Procedure: Each of the various Saccharomyces cerevisiae yeast strains used in examples 1 to 3 contain different specific mutations modeling human mutations resulting in mitochondrial diseases. At different extents, all these yeast strains present growth defect when grown on respiratory medium such as ethanol or glycerol at 28° C. or 36° C. (depending on the strain). […]
# More precisely, 200 μL of the various yeast mutant strain grown in liquid YPD rich fermentable medium (1% Yeast Extract, 0.5% Bacto Peptone, 2% Glucose) at 0.4 OD600 were spread on agar-based solid respiratory medium: either YPG (1% Yeast Extract, 0.5% Bacto Peptone, 2% glycerol) or YPE (1% Yeast Extract, 0.5% Bacto Peptone, 2% ethanol). Small sterile filters were then placed on the agar surface and increasing concentrations of DSF were added to the filters at the indicated quantities. […]
compound,measurement,value
"CCN(CC)C(=S)S.[Na+] [DEDTC, Sodium diethyldithiocarbamate]",effect on growth defect on non-fermentable (respiratory) medium,similarly suppresses the growth defect
